Test results reported in patent US20120141478A1, “COMPOSITIONS AND METHODS FOR DELIVERING ANTI-ACTIVATED RAS ANTIBODIES” (Cellectis S.A., priority 2006, published 2012).

What was measured:
[1] = biological target: mutated Ki-RAS of HCT 116 cells (human) (UniProt P01116); assay: cell-based or functional assay
[2] = system: K-RASmt HCT 116 cells; assay: In vitro anti-proliferative activity (WST-1) on HCT 116; type: cell-based, human
Protocol: Cells were incubated for 120 hours with the antibody alone (Y13259; 700 nM), or the DPV3-Y13259 conjugate (700 nM), with DPV3-maleimide as internal controls (DPV3-mal; 700 nM). Non-relevant IgG1 anti-peroxydase immunoglobulins (IgG PO; 700 nM) and an inhibitor of RAS farnesyltransferase (FTI-276; 100 nM) were used as internal controls. Results are expressed as mean±SEM of three independent experiments performed in duplicate. *p<0.05 vs not treated cells.
HCT 116 and HT-29 were seeded at 8×10^3 cells/well (96-well plates) in medium+0.5% and 10% FCS (Foetal Calf Serum) respectively. The day after, cells were treated with increasing concentrations of tested compounds in complete medium (+10% FCS) and cells were counted overtime at 24 h, 48 h, 72 h and 120 h using the WST-1 method, described hereafter. The medium was removed and 100 μl of fresh medium without FCS supplemented with 10% WST-1 solution was added on cells for 2 h at 37° C., 5% CO2. Measurement of A450 nm−A690 nm (blank=0 cells) was performed to determine cell number.
CPP-Y13259 conjugates were tested in a cell proliferation assay on mutated RAS-expressing and wild-type RAS expressing cell lines (HCT 116 and HT-29, respectively). FTI-276, a farnesyltransferase inhibitor that inhibits RAS-mediated cell proliferation constituted a positive control. […]

[3] = system: human lung carcinoma expressing K-RAS; conditions: cited from earlier work

Molecule | efficient concentration, HCT 116 cell proliferation (WST-1) [1] [nM] | duration of the effect on HCT 116 cell proliferation ([2]; 120 hours = maximum time tested) | effect on HCT 116 cell proliferation ([2]; FTI-276 100 nM, positive control) | effect on tumor growth in nude mice [3]
DPV3-Y13259 conjugate (antibody) | 85 to 700 |  |  | 
CSCC[C@H](NC(=O)c1ccc(NC[C@@H](N)CS)cc1-c1ccccc1)C(=O)O [FTI-276] |  | at least 120 hours | inhibited HCT 116 cell proliferation | block the growth of a human lung carcinoma expressing K-RAS in nude mice
